Assay results from paper PMC6268972, “Antiproliferative, Antimicrobial and Apoptosis Inducing Effects of Compounds Isolated from Inula viscosa” (Molecules, 2012).
Converted amounts (≈) assume the structure as drawn. Where a name gives a salt, the structure may show the parent alone.

Tests used:
Bacillus cereus [1] = settings: cited from earlier work; for MIC against Bacillus cereus: previous studies ref 31
Vero cells = assay: MTT antiproliferative activity assay, Vero; type: cell-based, African green monkey; settings: Chlorocebus sabaeus, Vero; MTT, 48 h treatment, average of three replicates; read-out: IC50 Vero
Method: (§1) Hep-2 (larynx carcinoma, ATCC: CCL-23), MCF-7 (breast epithelial adenocarcinoma, ATCC: HTB-22), and Vero (African green monkey kidney, ATCC: CCL-81) cell lines were kindly provided by Dr. Mona Hassuneh (Department of Biological Sciences, University of Jordan). Cells were grown in Minimum Essential Medium Eagle (Gibco, Paisley UK) supplemented with 10% heat inactivated fetal bovine serum (Gibco, Paisley UK), 29 μg/mL L-glutamine, and 40 μg/mL gentamicin. Cells were incubated in a humidified atmosphere of 5% CO2 at 37 °C.
(§2) The antiproliferative activity of Inula viscosa compounds was measured using the MTT (3-(4,5-dimethylthiazol-2-yl)-2,5-diphenyltetrazolium bromide) assay (Promega, Madison, WI, USA). The assay detects the reduction of MTT by mitochondrial dehydrogenase to blue formazan product, which reflects the normal function of mitochondria and cell viability. Exponentially growing cells were washed and seeded at 17,000 cells/well for Hep-2 cell line and 11,000 cells/ well for MCF-7 cell line (in 200 μL of growth medium) in 96 well microplates (Nunc, Roskilde, Denmark). After 24 h incubation, a partial monolayer was formed then the media was removed and 200 μL of the medium containing the compound (initially dissolved in DMSO) were added and re-incubated for 48 h. Then 100 μL of the medium were aspirated and 15 μL of the MTT solution were added to the remaining medium (100 μL) in each well. After 4 h contact with the MTT solution, blue crystals were formed. One hundred μL of the stop solution were added and incubated further for 1 h.
(§3) Reduced MTT was assayed at 550 nm using a microplate reader (Biotek, Winooski, VT, USA). Control groups received the same amount of DMSO (0.1%).Untreated cells were used as a negative control while, cells treated with vincristine sulfate were used as a positive control. Eight concentrations (150, 100, 50, 20, 10, 5, 2, and 1 μg/mL) were prepared from each compound and tested against the three cell lines. IC50 values were calculated as the concentrations that show 50% inhibition of proliferation on any tested cell line. Stock solutions of the compounds were dissolved in (DMSO) then diluted with the medium and sterilized using 0.2 μm membrane filters. The toxicity of DMSO was determined and the final dilution of compounds used for treating the cells contained not more than 0.1% (non toxic concentration) DMSO. IC50 values were reported as the average of three replicates. The antiproliferative effect of the tested compounds was determined by comparing the optical density of the treated cells against the optical density of the control (cells treated with media containing 0.1% DMSO).

MCF-7 cells [2] = assay: MTT antiproliferative activity assay, MCF-7; type: cell-based, human; settings: Homo sapiens, MCF7; MTT, 48 h treatment, average of three replicates; read-out: IC50 MCF-7
Method: as §1, §2, §3

Hep-2 cells = assay: MTT antiproliferative activity assay, Hep-2; type: cell-based; settings: Homo sapiens, HEp-2; MTT, 48 h treatment, average of three replicates; read-out: IC50 Hep-2
Method: as §1, §2, §3

MCF-7 cells [3] = assay: Scanning electron microscopy of MCF-7 cells; type: cell-based, human; settings: 15 µg/mL compound (vincristin sulfate 40 nM), 48 h
Method: MCF-7 cells were cultured in complete DMEM containing either 15 µg/mL of 3-O-methylquercetin or 3,3′-di-O-methylquercetin and incubated for 48 h in humidified CO2 incubator. Negative control cells were incubated with complete DMEM and positive control cells received complete DMEM containing 40 nM vincristin sulfate. Treated cells were fixed with 3% glutaraldehyde for 1.5 h followed by osmium tetroxide (2% in PBS) for 1 h. After fixation, cells were washed in PBS and sequentially dehydrated using 30%, 70%, and 100% ethanol. Fixed cells were attached to a metal stubs and sputter coated with platinum by using Emitech K550X coating unit (Qourum Technology, West Sussex, UK). The coated specimens were viewed using Inspect F50/FEG scanning electron microscope (FEI, Eindhoven, The Netherlands) at accelerating voltage of 2–5 kV. Bacillus cereus cells treated with 3,3′-di-O-methylquercetin for 24 h were collected by centrifugation and washed with sodium phosphate buffer. Following that, the samples were fixed in 2.5% glutaraldehyde in 0.1 M phosphate buffer, pH 7.3, at 4 °C overnight, and postfixed in 1% osmium tetroxide in the phosphate buffer for 1 h at room temperature. Bacterial cells were dehydrated with sequential ethanol concentrations (30–100%) and coated for the observations under scanning electron microscope.

Salmonella typhimurium = assay: Microtiter plate dilution MIC, S. typhimurium; type: cell-based; settings: Salmonella enterica, ATCC 14028 / TYPHIMURIUM; ATCC14028, 24 h, 100% inhibition; read-out: Minimum inhibitory concentration (MIC) S.t
Method: (§4) The microbial strains used in this study were Escherichia coli (ATCC 10798), Salmonella typhimurium (ATCC14028), Methicillin resistant Staphylococcus aureus (MRSA, Clinical isolate), Bacillus cereus (Toxigenic strain TS), and Candida albicans (ATCC 90028). Bacterial strains were stocked onto nutrient agar slant at 4 °C, and Candida albicans was stocked onto malt agar slant at 4 °C.
(§5) The microtiter plate dilution method was used to determine the MIC (minimum inhibitory concentration) of compounds under study. Sterile 96-well microplates (Nunc) were used for the assay. Stock compounds were dissolved in DMSO so that the final concentrations in micro wells were less than 1% DMSO and solvent controls were run at these concentrations. Positive controls of penicillin G and tetracycline (Oxoid, Hampshire, UK) were prepared at the following concentrations 2, 4, 8, 16, 31, 62.5, 125, and 250 μg/mL. 1% DMSO was used as a solvent control. Compounds were diluted to twice the desired initial test concentration (250 µg/mL) with Muller Hinton broth (MHB) (Oxoid). All wells, except the first were filled with MHB (50 μL). Compounds (100 μL) were added to the first well and serial two-fold dilutions were made down to the desired minimum concentration (2 μg/mL). An over-night culture of bacteria suspended in MHB was adjusted to turbidity equal to 0.5 McFarland standard. The plates were inoculated with bacterial suspension (50 μL/well) and incubated at 37 °C for 24 h. Then the turbidity was measured using micro-plate reader (Biotek) at 620 nm wavelength. The same procedure was used to determine the antifungal activity of compounds against Candida albicans. The medium used was malt extract broth. The yeast cells were suspended in 0.85% saline, with an optical density equivalent to 0.5 McFarland standard, and diluted 1:100 in malt extract broth to obtain the working concentration. After 24 h incubation with each compound, the turbidity was measured at 530 nm wavelength using a spectrophotometer (Biotek). Percentage inhibition for tested microorganisms was calculated using the following formula:
(§6) MIC was determined as the lowest concentration of the compound that causes complete inhibition (100%) of each microorganism.

[4] = tested on: Methicillin resistant Staphylococcus aureus (MRSA); assay: Microtiter plate dilution MIC, MRSA; type: cell-based; settings: Staphylococcus aureus, MRSA; clinical isolate, 24 h, 100% inhibition; read-out: Minimum inhibitory concentration (MIC) MRSA
Method: as §4, §5, §6

MCF-7 cells [5] = assay: TUNEL colorimetric apoptosis assay; type: cell-based, human; settings: 15 µg/mL, 28 h, compared with untreated cells
Method: Apoptosis was detected using terminal deoxynucleotidyl transferase (TdT) mediated-16-deoxyuridine triphosphate (dUTP) Nick-End Labelling (TUNEL) system (Promega, Madison, WI, USA). MCF-7 cells cultured in 24 well plates were treated with 15 µg/mL of either 3-O-methylquercetin or 3,3′-di-O-methylquercetin for 28 h. The assay was conducted according to the manufacturer's instructions. Briefly, treated cells were fixed using 10% formalin followed by washing with phosphate buffer saline (PBS). Cells were then permeabilized using 0.2% triton X-100. Biotinylated dUTP in rTdT reaction mixture was added to label the fragmented DNA at 37 °C for one hour, followed by blocking endogenous peroxidases using 0.3% hydrogen peroxide. Streptavidin HRP (1:500 in PBS) was added and incubated at room temperature for 30 min. Finally, hydrogen peroxide and chromagen diaminobenzidine were used to visualize nuclei with fragmented DNAs under the light microscope (Novex, Arnhem, Holland). Cells treated with 40 nM vincristine sulfate were used as a positive control while untreated cells were used as a negative control.

Candida albicans = assay: Microtiter plate dilution MIC, C. albicans; type: cell-based; settings: Candida albicans, ATCC90028; ATCC 90028, malt extract broth, 24 h, 100% inhibition; read-out: Minimum inhibitory concentration (MIC) C.a
Method: as §4, §5, §6

Escherichia coli = assay: Microtiter plate dilution MIC, E. coli; type: cell-based; settings: Escherichia coli, ATCC10798; ATCC 10798, 24 h, 100% inhibition; read-out: Minimum inhibitory concentration (MIC) E.c
Method: as §4, §5, §6

Bacillus cereus [6] = assay: Microtiter plate dilution MIC, B. cereus; type: cell-based; settings: Bacillus cereus; Toxigenic strain TS, 24 h, 100% inhibition; read-out: Minimum inhibitory concentration (MIC) B.c
Method: as §4, §5, §6

Compound | MIC against Bacillus cereus (Bacillus cereus [1]) [mg/L] | IC50 (Vero cells) [mg/L] | IC50 (MCF-7 cells [2]) [mg/L] | IC50 (Hep-2 cells) [mg/L] | Cytomorphological alterations (scanning electron microscopy) (MCF-7 cells [3]) | other results
O=c1c(O)c(-c2ccc(O)c(O)c2)oc2cc(O)cc(O)c12 [quercetin] | 350 (≈ 1160 µM) |  |  |  |  | 
O=c1c(O[C@H]2OC[C@@H](O)[C@@H](O)[C@@H]2O)c(-c2ccc(O)c(O)c2)oc2cc(O)cc(O)c12 [quercetin-3-O-arabinoside] | 350 (≈ 806 µM) |  |  |  |  | 
Quercetin-3-O-glycoside |  |  |  |  |  | Inhibition of Bacillus cereus (concentration) (Bacillus cereus [1]; previous studies ref 32): 50 µg/mL
CC[C@]1(O)C[C@H]2CN(CCc3c([nH]c4ccccc34)[C@@](C(=O)OC)(c3cc4c(cc3OC)N(C=O)[C@H]3[C@@](O)(C(=O)OC)[C@H](OC(C)=O)[C@]5(CC)C=CCN6CC[C@]43[C@@H]65)C2)C1 [Vincristine sulfate, reference compound] |  | > 90 | 10 ± 1.34 | > 90 | morphological changes similar to those observed in cells treated with either 3-O-methylquercetin or 3,3′-di-O-methylquercetin | 
COc1c(-c2ccc(O)c(O)c2)oc2cc(O)cc(O)c2c1=O [3-O-Methylquercetin] |  | > 150 | 11.2 ± 1.93 (≈ 35.5 µM) | 26.1 ± 2.18 (≈ 82.6 µM) | cell shrinkage, membrane blebbing, loss of contact with neighboring cells, and formation of apoptotic bodies | MIC (Salmonella typhimurium): 125 mg/L (≈ 395 µM); MIC [4]: > 250 mg/L; Apoptosis induction (DNA fragmentation, TUNEL) (MCF-7 cells [5]): increase in the number of apoptotic cells with fragmented DNA; MIC (Candida albicans): 250 mg/L (≈ 790 µM); MIC (Escherichia coli): > 250 mg/L; MIC (Bacillus cereus [6]): 125 mg/L (≈ 395 µM)
